According to patent US9617256B2 (priority 2007, dated 2017):
Converted amounts (≈) assume the structure as drawn. Like-named read-outs stand apart in the source and are kept apart here.

Key:
[1] = test system: APAE006 (strain of P. aeruginosa in which all efflux pumps are inactivated); experiment: microbe, parasite or virus in culture; format: cell-based; details: Pseudomonas aeruginosa
Experimental: (§1) Bacterial isolates were cultivated from −70° C. frozen stocks by overnight passages at 35° C. in ambient air on Mueller-Hinton agar (Beckton Dickinson, Franklin Lakes, N.J.). Clinical isolates tested were obtained from various geographically diverse hospitals in the US and abroad (Focus Diagnostics, Herndon, Va. and JMI, North Liberty, Iowa). Quality control strains were from the American Type Culture Collection (ATCC; Rockville, Md.). Additional primary panel strains were generated using standard molecular biology techniques.
(§2) Minimum Inhibitory Concentrations (MICs) were determined by the broth microdilution method in accordance with the Clinical and Laboratory Standards Institute (CLSI) guidelines. In brief, organism suspensions were adjusted to a 0.5 McFarland standard to yield a final inoculum between 3×10^5 and 7×10^5 colony-forming units (CFU)/mL. Drug dilutions and inocula were made in sterile, cation adjusted Mueller-Hinton Broth (Beckton Dickinson). An inoculum volume of 100 μL was added to wells containing 100 μL of broth with 2-fold serial dilutions of drug. All inoculated microdilution trays were incubated in ambient air at 35° C. for 18-24 hours. […] Performance of the assay was monitored by the use of laboratory quality-control strains and levofloxacin, a compound with a defined MIC spectrum, in accordance with CLSI guidelines.
(§3) *AECO001 is ATCC25922, AECO063 is ATCC25922 bearing an acrAB mutation, APAE001 is ATCC27853, APAE006 is a strain of P. aeruginosa in which all efflux pumps are inactivated, APAE006+PMBN indicates MICs with the indicated strain in the presence of 8 micrograms per milliliter of polymyxin B nonapeptide, AABA1060 is a clinical isolate of Acinetobacter baumannii, ASAU001 is a laboratory strain of S. aureus (ATCC29213).

[2] = test system: ASAU001 (laboratory strain of S. aureus, ATCC29213); experiment: MIC broth microdilution, ASAU001; format: cell-based; details: Staphylococcus aureus, ATCC29213, read-out: MIC ASAU001
Experimental: as §1, §2, §3

AECO001 (ATCC25922) = experiment: MIC broth microdilution, AECO001; format: cell-based, E. coli; details: Escherichia coli
Experimental: as §1, §2, §3

APAE001 (ATCC27853) = experiment: MIC broth microdilution, APAE001; format: cell-based, P. aeruginosa; details: Pseudomonas aeruginosa
Experimental: as §1, §2, §3

[3] = test system: AABA1060 (clinical isolate of Acinetobacter baumannii); experiment: MIC broth microdilution, AABA1060; format: cell-based; details: Acinetobacter baumannii, read-out: MIC AABA1060
Experimental: as §1, §2, §3

[4] = test system: AECO063 (ATCC25922 bearing an acrAB mutation); experiment: microbe, parasite or virus in culture; format: cell-based, E. coli; details: Escherichia coli, ATCC25922, read-out: MIC AECO063
Experimental: as §1, §2, §3

[5] = read-out: MIC APAE006, P. aeruginosa, all efflux pumps inactivated
[6] = ATCC25922, read-out: MIC AECO001
[7] = ATCC27853, read-out: MIC APAE001, APAE001 is ATCC27853
[8] = read-out: MIC APAE006, APAE006, all efflux pumps inactivated
[9] = ATCC25922, read-out: MIC AECO001 HSA AGP
[10] = ATCC27853, read-out: MIC APAE001, APAE001 (ATCC27853)

Structure (SMILES) | MIC [1, 5] [µg/mL] | MIC [2] [µg/mL] | MIC (AECO001 (ATCC25922); [6]) [µg/mL] | MIC (APAE001 (ATCC27853); [7]) [µg/mL] | MIC [3] [µg/mL] | MIC [1, 8] [µg/mL] | MIC (AECO001 (ATCC25922); [9]) [µg/mL] | MIC (APAE001 (ATCC27853); [10]) [µg/mL] | MIC [4] [µg/mL]
O=C(NO)[C@H](Cc1ccccc1)NS(=O)(=O)c1ccc(C#Cc2ccc(CN3CCOCC3)cc2)cc1 [Example 62-6] | 2 to 16 (≈ 3.85 to 30.8 µM) | > 64 | 16 to 64 (≈ 30.8 to 123 µM) | > 64 | – | – | – | – | –
O=C(NO)[C@H](COCc1ccccc1)NS(=O)(=O)c1ccc(C#Cc2ccc(CN3CCOCC3)cc2)cc1 [Example 62-5] | 16 to 64 (≈ 29.1 to 116 µM) | > 64 | 2 to 16 (≈ 3.64 to 29.1 µM) | > 64 | – | – | – | – | –
CC(C)CC#CC#Cc1ccc(C(=O)N[C@H](C(=O)NO)[C@@H](C)N)cc1 [Example 91-24] | – | 2 to 16 (≈ 5.86 to 46.9 µM) | < 2 | – | 2 to 16 (≈ 5.86 to 46.9 µM) | < 2 | 2 to 16 (≈ 5.86 to 46.9 µM) | < 2 | < 2
CC(C)(N)[C@H](NC(=O)c1ccc(C#CC#CCC2CC2)cc1)C(=O)NO [Example 91-26] | – | 16 to 64 (≈ 45.3 to 181 µM) | < 2 | – | < 2 | < 2 | < 2 | < 2 | < 2
O=C(NO)[C@@H]1CCN1S(=O)(=O)c1ccc(C#Cc2ccc(CN3CCOCC3)cc2)cc1 [Example 62-11] | < 2 | > 64 | 2 to 16 (≈ 4.39 to 35.1 µM) | > 64 | – | – | – | – | –
O=C(NO)C1(NS(=O)(=O)c2ccc(C#Cc3ccc(CN4CCOCC4)cc3)cc2)CCCC1 [Example 62-8] | 16 to 64 (≈ 33.1 to 132 µM) | > 64 | 16 to 64 (≈ 33.1 to 132 µM) | > 64 | – | – | – | – | –
C[C@@H](N)[C@H](NC(=O)c1ccc(C#CC#CCC2CC2)cc1)C(=O)NO [Example 91-27] | – | 16 to 64 (≈ 47.1 to 189 µM) | < 2 | – | 2 to 16 (≈ 5.89 to 47.1 µM) | < 2 | 2 to 16 (≈ 5.89 to 47.1 µM) | < 2 | < 2
C[C@H](NCC(=O)N[C@H](C)[C@H](NC(=O)c1ccc(C#Cc2ccccc2)cc1)C(=O)NO)c1ccccc1 [Example 132-5] | – | 16 to 64 (≈ 32.1 to 128 µM) | 16 to 64 (≈ 32.1 to 128 µM) | – | 16 to 64 (≈ 32.1 to 128 µM) | < 2 | 16 to 64 (≈ 32.1 to 128 µM) | 16 to 64 (≈ 32.1 to 128 µM) | –
O=C(NO)[C@@H](Cc1ccccc1)NS(=O)(=O)c1ccc(C#Cc2ccc(CN3CCOCC3)cc2)cc1 [Example 62-4, (R)—N-Hydroxy-2-[4-(4-morpholin-4-ylmethyl-phenylethynyl)-benzenesulfonylamino]-3-phenyl-propionamide] | 2 to 16 (≈ 3.85 to 30.8 µM) | > 64 | 2 to 16 (≈ 3.85 to 30.8 µM) | > 64 | – | – | – | – | –
O=C(NO)[C@@H]1CCCN1S(=O)(=O)c1ccc(C#Cc2ccc(CN3CCOCC3)cc2)cc1 [Example 62-10] | < 2 | > 64 | 2 to 16 (≈ 4.26 to 34.1 µM) | > 64 | – | – | – | – | –
CC(C)(N)[C@H](NC(=O)c1ccc(C#CC#Cc2ccccc2F)cc1)C(=O)NO [Example 82-29] | – | 2 to 16 (≈ 5.08 to 40.7 µM) | < 2 | – | < 2 | < 2 | < 2 | < 2 | –
CSC[C@H](NS(=O)(=O)c1ccc(C#Cc2ccc(CN3CCOCC3)cc2)cc1)C(=O)NO [Example 62-9] | 2 to 16 (≈ 4.08 to 32.7 µM) | > 64 | 16 to 64 (≈ 32.7 to 131 µM) | > 64 | – | – | – | – | –
CC(C)(O)[C@H](NC(=O)c1ccc(C#CC#Cc2cccs2)cc1)C(=O)NO [Example 88-11] | – | 16 to 64 (≈ 41.8 to 167 µM) | < 2 | – | < 2 | < 2 | < 2 | < 2 | < 2
